Measurements: US8367873B2, “Phenyl-substituted bicyclooctane-1,3-dione derivatives” (Bayer Cropscience AG, priority 2008, dated 2013)

Key:
Assay type in all cases: in vivo
Alopecurus myosuroides [1] = assay: Herbicidal pre-emergence action; conditions: pre-emergence method, 80 g/ha, greenhouse, visual assessment vs untreated controls
Outline: (§1)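 Test compounds, as wettable powder suspensions with 0.2% wetting agent at a water rate of 600 l/ha, were applied in different amounts to the covering soil over freshly sown seeds in sandy loam. Emergence damage was rated visually in percent against untreated plants after three weeks under greenhouse conditions.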

Echinocloa crus-galli [2] = assay: Herbicidal pre-emergence action; conditions: pre-emergence method, 80 g/ha, greenhouse, visual assessment vs untreated controls
Outline: as §1

Lolium multiflorum [3] = assay: Herbicidal pre-emergence action; conditions: pre-emergence method, 80 g/ha, greenhouse, visual assessment vs untreated controls
Outline: as §1

Setaria viridis [4] = assay: Herbicidal pre-emergence action; conditions: pre-emergence method, 80 g/ha, greenhouse, visual assessment vs untreated controls
Outline: as §1

Alopecurus myosuroides [5] = assay: Herbicidal post-emergence action; conditions: post-emergence method, 80 g/ha
Outline: (§2)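 One-leaf-stage greenhouse plants sprayed with WP at graded amounts (600 l/ha, 0.2% wetting agent); ~3 wk later, visual % effect rated vs untreated controls, 100% = dead, 0% = like control.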

Echinocloa crus-galli [6] = assay: Herbicidal post-emergence action; conditions: post-emergence method, 80 g/ha
Outline: as §2

Lolium multiflorum [7] = assay: Herbicidal post-emergence action; conditions: post-emergence method, 80 g/ha
Outline: as §2

Setaria viridis [8] = assay: Herbicidal post-emergence action; conditions: post-emergence method, 80 g/ha
Outline: as §2

[9] = tested on: monocotylidonous and dicotylidonous weed and crop plants; assay: Herbicidal pre-emergence action (other test plants); conditions: pre-emergence method, 80 g/ha, greenhouse, visual assessment vs untreated controls
Outline: as §1

[10] = tested on: monocotylidonous and dicotylidonous weed and crop plants; assay: Herbicidal post-emergence action (other test plants); conditions: post-emergence method, 80 g/ha
Outline: as §2

CCc1cc(C)cc(CC)c1C1=C(O)C2CC(=NOCC(C)C)CC2C1=O (stereo not drawn) [I-a-69]
herbicidal effect ALOMY (Alopecurus myosuroides [1]): 50%
herbicidal effect ECHCG (Echinocloa crus-galli [2]): 20%
herbicidal effect LOLMU (Lolium multiflorum [3]): 70%
herbicidal effect SETVI (Setaria viridis [4]): 80%
herbicidal effect against ALOMY (Alopecurus myosuroides) (Alopecurus myosuroides [5]): 90%
herbicidal effect against ECHCG (Echinochloa crus-galli) (Echinocloa crus-galli [6]): 100%
herbicidal effect against LOLMU (Lolium multiflorum) (Lolium multiflorum [7]): 100%
herbicidal effect against SETVI (Setaria viridis) (Setaria viridis [8]): 80%
herbicidal effect AVEFA [9]: 70%
herbicidal effect against AVEFA (Avena fatua) [10]: 30%

CCC(=O)OC1=C(c2c(CC)cc(C)cc2CC)C(=O)C2CC3(COC(C)(C)O3)CC12 (stereo not drawn) [I-b-2]
herbicidal effect ALOMY (Alopecurus myosuroides [1]): 90%
herbicidal effect ECHCG (Echinocloa crus-galli [2]): 30%
herbicidal effect LOLMU (Lolium multiflorum [3]): 100%
herbicidal effect SETVI (Setaria viridis [4]): 40%
herbicidal effect against ALOMY (Alopecurus myosuroides) (Alopecurus myosuroides [5]): 100%
herbicidal effect against ECHCG (Echinochloa crus-galli) (Echinocloa crus-galli [6]): 90%
herbicidal effect against LOLMU (Lolium multiflorum) (Lolium multiflorum [7]): 100%
herbicidal effect against SETVI (Setaria viridis) (Setaria viridis [8]): 80%
herbicidal effect AVEFA [9]: 50%
herbicidal effect against AVEFA (Avena fatua) [10]: 60%

C#CC(C)ON=C1C[C@@H]2C(O)=C(c3c(CC)cc(C)cc3CC)C(=O)[C@@H]2C1 (relative stereo) [I-a-32]
herbicidal effect ALOMY (Alopecurus myosuroides [1]): 90%
herbicidal effect ECHCG (Echinocloa crus-galli [2]): 40%
herbicidal effect LOLMU (Lolium multiflorum [3]): 100%
herbicidal effect SETVI (Setaria viridis [4]): 20%
herbicidal effect against ALOMY (Alopecurus myosuroides) (Alopecurus myosuroides [5]): 80%
herbicidal effect against ECHCG (Echinochloa crus-galli) (Echinocloa crus-galli [6]): 100%
herbicidal effect against LOLMU (Lolium multiflorum) (Lolium multiflorum [7]): 100%
herbicidal effect against SETVI (Setaria viridis) (Setaria viridis [8]): 20%
herbicidal effect AVEFA [9]: 60%
herbicidal effect against AVEFA (Avena fatua) [10]: 0%

CCOC(=O)OC1=C(c2c(CC)cc(C)cc2CC)C(=O)C2CC3(CC12)OCCS3 (mixture of isomers) [I-c-30]
herbicidal effect ALOMY (Alopecurus myosuroides [1]): 100%
herbicidal effect ECHCG (Echinocloa crus-galli [2]): 80%
herbicidal effect LOLMU (Lolium multiflorum [3]): 100%
herbicidal effect SETVI (Setaria viridis [4]): 60%
herbicidal effect against ALOMY (Alopecurus myosuroides) (Alopecurus myosuroides [5]): 80%
herbicidal effect against ECHCG (Echinochloa crus-galli) (Echinocloa crus-galli [6]): 100%
herbicidal effect against LOLMU (Lolium multiflorum) (Lolium multiflorum [7]): 100%
herbicidal effect against SETVI (Setaria viridis) (Setaria viridis [8]): 70%
herbicidal effect AVEFA [9]: 90%
herbicidal effect against AVEFA (Avena fatua) [10]: 40%

CCc1cc(C)cc(CC)c1C1=C(O)[C@H]2CC3(C[C@H]2C1=O)OCC(C)(C)CO3 (relative stereo) [I-a-9]
herbicidal effect ALOMY (Alopecurus myosuroides [1]): 90%
herbicidal effect ECHCG (Echinocloa crus-galli [2]): 100%
herbicidal effect LOLMU (Lolium multiflorum [3]): 100%
herbicidal effect SETVI (Setaria viridis [4]): 90%
herbicidal effect against ALOMY (Alopecurus myosuroides) (Alopecurus myosuroides [5]): 60%
herbicidal effect against ECHCG (Echinochloa crus-galli) (Echinocloa crus-galli [6]): 100%
herbicidal effect against LOLMU (Lolium multiflorum) (Lolium multiflorum [7]): 90%
herbicidal effect against SETVI (Setaria viridis) (Setaria viridis [8]): 90%
herbicidal effect AVEFA [9]: 70%
herbicidal effect against AVEFA (Avena fatua) [10]: 60%

COc1cc(C)cc(C)c1C1=C(OC(=O)C(C)C)C2CC3(CC2C1=O)OCCO3 (stereo not drawn) [I-b-65]
herbicidal effect ALOMY (Alopecurus myosuroides [1]): 60%
herbicidal effect ECHCG (Echinocloa crus-galli [2]): 90%
herbicidal effect LOLMU (Lolium multiflorum [3]): 100%
herbicidal effect SETVI (Setaria viridis [4]): 70%
herbicidal effect against ALOMY (Alopecurus myosuroides) (Alopecurus myosuroides [5]): 90%
herbicidal effect against ECHCG (Echinochloa crus-galli) (Echinocloa crus-galli [6]): 100%
herbicidal effect against LOLMU (Lolium multiflorum) (Lolium multiflorum [7]): 100%
herbicidal effect against SETVI (Setaria viridis) (Setaria viridis [8]): 100%
herbicidal effect AVEFA [9]: 70%
herbicidal effect against AVEFA (Avena fatua) [10]: 90%
